# Columns and labels:
# P2 receptor = settings: conventional antagonist, stated shortcoming; cited from earlier work
# human P2X3 receptor = target: T1, human P2X3 receptor (Homo sapiens, UniProt P56373); assay: Two-electrode voltage clamp, ATP-induced ion current in Xenopus oocytes expressing human P2X3; type: cell-based; settings: for inhibition at 10 µM: read-out: % inhibition hP2X3
# T1 construct: expressed in transfected cells; host or cells: Xenopus oocytes (cRNA injected); cDNA from the Max-Planck Institute laboratory (Dr. W. Stuhmer and Dr. F. Soto)
# T1 sequence (P56373 1-397): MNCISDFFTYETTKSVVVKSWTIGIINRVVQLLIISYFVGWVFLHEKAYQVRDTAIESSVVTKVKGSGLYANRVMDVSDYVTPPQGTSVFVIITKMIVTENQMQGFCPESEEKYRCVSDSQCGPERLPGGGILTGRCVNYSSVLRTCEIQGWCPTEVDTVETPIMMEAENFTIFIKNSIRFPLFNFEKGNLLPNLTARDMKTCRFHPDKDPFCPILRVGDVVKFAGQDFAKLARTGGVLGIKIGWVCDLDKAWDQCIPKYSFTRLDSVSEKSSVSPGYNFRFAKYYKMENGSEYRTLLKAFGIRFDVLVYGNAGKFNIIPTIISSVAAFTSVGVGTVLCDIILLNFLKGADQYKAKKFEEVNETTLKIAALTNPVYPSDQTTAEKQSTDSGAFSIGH
# Procedure: Antagonistic Activity at Recombinant Mouse P2X1 and Human P2X3 Receptors
# (§1) Xenopus oocytes were harvested and prepared with method as previously described in publications. Defolliculated oocytes were injected cytosolically with mouse P2X1 and human P2X3 receptor cRNA ([…], 1 μg/mL), respectively, incubated for 24 hrs at 18° C. in Barth's solution and kept for up to 12 days at 4° C. until used in electrophysiological experiments. ATP-activated membrane currents (Vh=−70 mV) were recorded from cRNA-injected oocytes using the twin-electrode voltage-clamp technique (Axoclamp 2B amplifier). Voltage recording (1-2 MΩ tip resistance) and current-recording microelectrodes (5 MΩ tip resistance) were filled with 3.0 M KCl. Oocytes were held in an electrophysiological chamber and superfused with Ringer's solution (5 mL/min, at 18° C.) containing (mM) NaCl, 110; KCl, 2.5; HEPES, 5; BaCl2, 1.8, adjusted to pH 7.5. ATP was superfused over the oocytes for 60-120s then washed out for a period of 20 min. For inhibition curves, data were normalized to the current evoked by ATP, at pH 7.5. Test substances were added for 20 min prior to ATP exposure; all peptides were tested for reversibility of their effects. The concentration required to inhibit the ATP response by 50% (IC50) was taken from Hill plots constructed using the formula: log(I/Imax−1), where I is the current evoked by ATP in the presence of an antagonist. Data are presented as mean±SEM (n=4) for the data from different batches of oocytes.
# human P2X7 receptor = target: T2, human P2X7 receptor (Homo sapiens, UniProt Q99572); assay: Ethidium+ accumulation assay in human P2X7-expressing HEK293 cells; type: cell-based; settings: 10 μM compound, ethidium+ accumulation induced by 6 μM BzATP, n = 3
# T2 construct: EST clones containing full-length cDNAs of mouse P2X1 (clone ID: 4189541) and human P2X7 receptor (clone ID: 5286944); host or cells: HEK293
# T2 sequence (Q99572 1-595): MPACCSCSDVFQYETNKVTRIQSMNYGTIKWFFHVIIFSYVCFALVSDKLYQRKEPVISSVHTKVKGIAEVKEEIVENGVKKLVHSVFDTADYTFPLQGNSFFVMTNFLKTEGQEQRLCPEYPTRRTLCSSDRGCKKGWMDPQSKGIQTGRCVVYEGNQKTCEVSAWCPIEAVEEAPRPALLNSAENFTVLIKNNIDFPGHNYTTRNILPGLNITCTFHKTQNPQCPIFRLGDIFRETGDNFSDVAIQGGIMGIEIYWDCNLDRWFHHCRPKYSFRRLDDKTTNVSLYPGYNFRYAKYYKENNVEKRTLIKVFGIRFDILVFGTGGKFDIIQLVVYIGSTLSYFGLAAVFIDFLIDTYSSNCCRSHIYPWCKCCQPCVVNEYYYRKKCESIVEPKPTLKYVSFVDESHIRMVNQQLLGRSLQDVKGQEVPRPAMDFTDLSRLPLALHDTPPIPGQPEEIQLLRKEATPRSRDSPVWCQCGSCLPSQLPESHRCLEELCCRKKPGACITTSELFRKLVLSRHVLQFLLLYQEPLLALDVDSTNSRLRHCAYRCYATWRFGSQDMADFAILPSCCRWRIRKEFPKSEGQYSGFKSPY
# Procedure: 1-2. Ethidium^+ Accumulation Assay at Human P2X7 Receptors
# Human P2X7-expressing HEK293 cells were grown as monolayer culture at 37° C. in a humidified atmosphere of 5% CO2, DMEM supplemented with 10% fetal bovine serum. Cells were harvested with treatment of Trypsin/EDTA solution, collected by centrifugation (200 g for 5 min).
# The cells were resuspended at 2.5×10^6 cells/mL in assay buffers, consisting of (in mM) HEPES 10, KCl 140, glucose 5, EDTA 1 (pH 7.4), and then ethidium bromide (100 μM) was added. Cell suspensions were added to 96 well plates containing the P2X7 receptor agonist, ATP or BzATP, at 2×10^5 cells/wells. Plates were incubated at 37° C. for 120 min and cellular accumulation of ethidium^+ was determined by measuring fluorescence with Bio-Tek instrument FL600 fluorescent plate reader (excitation wavelength of 530 nm and emission wavelength of 590 nm). When the effects of antagonists, such as PPADS, KN62, and test peptides were studied, antagonists were treated together with agonist without pre-incubation.
# mouse P2X1 receptor = target: T3, mouse P2X1 receptor (Mus musculus, UniProt P51576); assay: Two-electrode voltage clamp, ATP-induced ion current in Xenopus oocytes expressing mouse P2X1; type: cell-based; settings: for % inhibition mP2X1 / inhibition at 10 µM: Table 2, 10 μM compound, ion current induced by 2 μM ATP, mean ± SEM, n = 4; for inhibition at 10 µM: read-out: % inhibition mP2X1
# T3 construct: EST clones containing full-length cDNAs of mouse P2X1 (clone ID: 4189541) and human P2X7 receptor (clone ID: 5286944); host or cells: Xenopus oocytes (cRNA injected)
# T3 sequence (P51576 1-399): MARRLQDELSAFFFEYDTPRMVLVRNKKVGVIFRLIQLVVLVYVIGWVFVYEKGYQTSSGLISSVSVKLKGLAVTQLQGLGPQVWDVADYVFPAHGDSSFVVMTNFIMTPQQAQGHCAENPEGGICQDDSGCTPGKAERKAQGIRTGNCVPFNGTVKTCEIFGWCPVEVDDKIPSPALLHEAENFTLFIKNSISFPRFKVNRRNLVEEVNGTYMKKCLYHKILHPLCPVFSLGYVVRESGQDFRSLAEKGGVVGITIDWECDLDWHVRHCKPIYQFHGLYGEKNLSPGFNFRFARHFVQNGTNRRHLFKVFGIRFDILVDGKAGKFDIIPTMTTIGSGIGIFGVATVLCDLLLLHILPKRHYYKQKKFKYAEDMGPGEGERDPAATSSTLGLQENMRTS
# Procedure: 1-1. Antagonistic Activity at Recombinant Mouse P2X1 and Human P2X3 Receptors
# as §1
# [1] = Table 2, 10 μM compound, ion current induced by 2 μM ATP, mean ± SEM, n = 4
# [2] = concentration-response curve, 2 μM ATP, mean of four observations, read-out: IC50 value
structure (smiles),measurement,setting,value
"Cc1nc(N=Nc2ccc(S(=O)(=O)O)cc2S(=O)(=O)O)c(COP(=O)(O)O)c(C=O)c1O [PPADS, pyridoxalphosphate-6-azophenyl-2′,4′-disulphonic acid]",reversibility of blocking activity,P2 receptor,irreversible blocking activity
"Cc1nc(CC(c2ccccc2)c2ccccc2)c(C(=O)O)c(C(=O)O)c1O [Compound 51, 2-(2,2,-diphenylethyl)5-hydroxy-6-methylpyridine-3,4-dicarboxylic acid]",% inhibition hP2X3,human P2X3 receptor; [1],62.9 ± 7.1%
same,% inhibition hP2X7,human P2X7 receptor,inactive
same,% inhibition mP2X1,mouse P2X1 receptor,53.9 ± 5.1%
"COc1ccc(CCc2nc(C)c(O)c(C=O)c2/C=C/C(=O)O)cc1 [Compound 64, (E)-3-(4-formyl-5-hydroxy-2-(4-methoxyphenethyl)-6-methylpyridin-3-yl)acrylic acid]",inhibition at 10 µM,human P2X3 receptor; [1],69.4 ± 7.5%
same,% inhibition hP2X7,human P2X7 receptor,inactive
same,inhibition at 10 µM,mouse P2X1 receptor,51.4 ± 4.8%
"Cc1nc(Cc2ccccc2)c(C(=O)O)c(C(=O)O)c1O [Compound 35, 2-Benzyl-5-hydroxy-6-methyl-pyridine-3,4-dicarboxylic acid]",inhibition at 10 µM,human P2X3 receptor; [1],31.4 ± 6.2%
same,% inhibition hP2X7,human P2X7 receptor,inactive
same,inhibition at 10 µM,mouse P2X1 receptor,54.2 ± 10.6%
"CC(=O)c1c(O)c(C)nc(Cc2ccccc2)c1C(=O)O [Compound 44, 4-acetyl-2-benzyl-5-hydroxy-6-methylnicotinic acid]",inhibition at 10 µM,human P2X3 receptor; [1],18.3 ± 6.4%
same,% inhibition hP2X7,human P2X7 receptor,inactive
same,% inhibition mP2X1,mouse P2X1 receptor,44.2 ± 4.0%
same,inhibition at 10 µM,mouse P2X1 receptor,46%
"COc1ccccc1CCc1nc(C)c(O)c(C(=O)O)c1C(=O)O [Compound 41, 5-Hydroxy-2-[2-(2-methoxy-phenyl)-ethyl]-6-methyl-pyridine-3,4-dicarboxylic acid]",inhibition at 10 µM,human P2X3 receptor; [1],34.5 ± 4.3%
same,% inhibition hP2X7,human P2X7 receptor,inactive
same,inhibition at 10 µM,mouse P2X1 receptor,49.8 ± 5.4%
"COc1cccc(/C=C/c2nc(C)c(O)c(C(C)=O)c2C(=O)O)c1 [Compound 48, (E)-4-acetyl-5-hydroxy-2-(3-methoxystyryl)-6-methylnicotinic acid]",inhibition at 10 µM,human P2X3 receptor; [1],15.8 ± 9%
same,% inhibition hP2X7,human P2X7 receptor,inactive
same,inhibition at 10 µM,mouse P2X1 receptor,29.9 ± 5.7%
"Cc1nc(C=Cc2ccccc2)c(C(=O)O)c(C(=O)O)c1O [Compound 38, 5-Hydroxy-6-methyl-2-styryl-pyridine-3,4-dicarboxylic acid]",inhibition at 10 µM,human P2X3 receptor; [1],48.4 ± 9%
same,inhibition at 0.1 µM,"human P2X3 receptor; concentration of 100 nM, receptor not stated in the sentence (follows FIG. 2B, human P2X3), read-out: % inhibition",19.2%
same,Hill coefficient,"human P2X3 receptor; concentration-inhibitory curve, 2 μM ATP (FIG. 1C, FIG. 2B)",−0.52±0.12
same,IC50,human P2X3 receptor; [2],782 nM
same,% inhibition hP2X7,human P2X7 receptor,inactive
same,inhibition at 10 µM,mouse P2X1 receptor,71.4 ± 4.3%
same,Hill coefficient,"mouse P2X1 receptor; concentration-inhibitory curve, 2 μM ATP (FIG. 1B, FIG. 2A)",−0.98±0.11
same,IC50,mouse P2X1 receptor; [2],509 nM
"CC(=O)c1c(O)c(C)nc(/C=C/c2ccccc2)c1C(=O)O [Compound 47, (E)-4-acetyl-5-hydroxy-6-methyl-2-styrylnicotinic acid]",inhibition at 10 µM,human P2X3 receptor; [1],27.4 ± 5.5%
same,% inhibition hP2X7,human P2X7 receptor,inactive
same,inhibition at 10 µM,mouse P2X1 receptor,40.4 ± 1.3%
"COc1cccc(CCc2nc(C)c(O)c(C(=O)O)c2C(=O)O)c1 [Compound 40, 5-Hydroxy-2-[2-(3-methoxy-phenyl)-ethyl]-6-methyl-pyridine-3,4-dicarboxylic acid]",inhibition at 10 µM,human P2X3 receptor; [1],39.3 ± 3.8%
same,% inhibition hP2X7,human P2X7 receptor,inactive
same,inhibition at 10 µM,mouse P2X1 receptor,52.4 ± 6.2%
